{"source": "patent EP3603649A1", "about": "(priority 2018, dated 2020)", "molecular_target": "PrP^res (Homo sapiens, UniProt P04156)", "assay_type": "cell-based"}
{"smiles": "COC[C@H]1O[C@@H]2O[C@H]3[C@H](O)[C@@H](OC)[C@@H](O[C@H]4[C@H](O)[C@@H](OC)[C@@H](O[C@H]5[C@H](O)[C@@H](OC)[C@@H](O[C@H]6[C@H](O)[C@@H](OC)[C@@H](O[C@H]7[C@H](O)[C@@H](OC)[C@@H](O[C@H]8[C@H](O)[C@@H](OC)[C@@H](O[C@H]1[C@H](O)[C@H]2OC)O[C@@H]8COC)O[C@@H]7COC)O[C@@H]6COC)O[C@@H]5COC)O[C@@H]4COC)O[C@@H]3COC", "note": "[DIMEB, heptakis(2,6-O-dimethyl)beta-cyclodextrin]", "values": [{"measurement": "PrP^Sc accumulation", "result": "significantly decreased"}]}
